According to US20020003114A1, “Partially halogenated hydantoins in papermaking applications” (Lonza Inc.;, priority 2000, published 2002):

How the values were obtained:
[1] = Oxidant (halogen) loss rate with performance additive C-Starch; type: physicochemical
Procedure: (§1) 125 mL solutions containing 2.0 ppm (expressed total halogen as Cl2) of Cl0.9-5,5-dimethyl hydantoin, Dantochlor®, sodium hypochlorite, Dantobrom®, or sodium hypobromite and a performance additive described in Table 4 were prepared by mixing the appropriate amounts of the ingredients in tap water at a temperature of about 37° C. and a pH of about 8.
(§2) The degeneration of the performance additives tested was determined by measuring the residual oxidant (halogen) concentrations of the solutions over time as follows. The tests were performed in a water bath maintained at 37° C. and an orbital shaker in order to keep the performance additives dispersed in the solutions. Aliquots were taken at regular intervals over a 30 minute period and measured for residual slimicide concentrations using the standard diethyl-p-phenylene diamine (DPD) methodology described in Palin, A. T., Chemistry and Control of Modem Chlorination, La Motte Chemical (1973). The oxidant (halogen) loss rates were determined from first order linear regression plots of the residual oxidant (halogen) concentrations over time.
(§3) The ratio of bactericidal efficacy to oxidant loss rate was calculated for the slimicides and performance additives in Table 7 based on the results in Tables 5 and 6 above. […]

[2] = system: organisms native to the white water; assay: Bactericidal efficacy of slimicides in paper mill white water; type: cell-based; conditions: Table 8
Procedure: White water was obtained from a Northeastern paperboard mill. The pH of the white water was about 6.5-7.5. The consistency of the white water was typically 0.1-0.2%. The furnish pulp was approximately 50% mixed, 15% chip, 15% corrugated, and 15% newspaper. The white water contained the sizing alkyl ketene dimer (AKD). The test organisms were those native to the white water.
The slimicide was added at a concentration of from about 15 to about 20 ppm (expressed as Cl2) to the white water. The white water was then incubated for 3 hours at 37° C. The test conditions were based on ASTM E 600-91 and ASTM E 1839-96. Bacterial counts were performed using tryptone glucose extract agar by known pour plate techniques. DIFCO D/E Neutralizing Broth was used as the first serial dilution tube for biocide neutralization.
The bactericidal efficacy of each slimicide in Table 6 was determined according to the procedure described in Example 2, except the incubation time was 30 minutes instead of 3 hours and the initial concentration of slimicide was about 20 ppm (expressed as Cl2).
The bactericidal efficacy rate of each slimicide was determined by dividing the observed log reduction in the bacterial count by the 30 minute contact time. The bactericidal efficacy rate at 2 ppm of slimicide (expressed as C2) was extrapolated from the results for 20 ppm of slimicide (expressed as Cl2) by assuming a first order behavior. […]
The bactericidal efficacy and bacterial efficacy rate of each slimicide in Table 8 below was determined according to the procedure described in Example 5.
The bactericidal efficacy of each slimicide in Table 10 was determined according to the procedure described in Example 2, except the initial concentration of slimicide was about 10 ppm (expressed as Cl2).
The microbiocidal efficacy rate of each slimicide was determined by dividing the observed log reduction in the bacterial count by the 180 minute contact time. The efficacy rate at 2 ppm of slimicide (expressed as Cl2) was extrapolated from the results for 10 ppm of slimicide (expressed as Cl2) by assuming a first order behavior. […]

[3] = Oxidant (halogen) loss rate with performance additive AKD; type: physicochemical
Procedure: as §1, §2, §3

[4] = Oxidant (halogen) loss rate with performance additive A-PAM; type: physicochemical
Procedure: as §1, §2, §3

[5] = Oxidant (halogen) loss rate with performance additive PAE; type: physicochemical
Procedure: as §1, §2, §3

[6] = Oxidant (halogen) loss rate with performance additive C-PAM; type: physicochemical
Procedure: as §1, §2, §3

[7] = Table 9, extrapolated rate at 2 ppm (Table 8) divided by oxidant loss rate (Table 5)

[Na+].[O-]Br [NaOBr, Sodium hypobromite]
Ratio of Bactericidal Efficacy Rate to Oxidant Loss Rate, C-Starch [1, 7]: 0.02 log cfu/ml reduction per ppm
Oxidant (Halogen) Loss Rate, C-Starch ([1]; slimicide 2.0 ppm (as Cl2), C-Starch 100 ppm active, tap water, 37° C., pH about 8, 30 minutes): 0.010 ppm/min
Bactericidal Efficacy Rate (log cfu/ml reduction per minute) ([2]; 20 ppm slimicide, log reduction divided by 30 minute contact time): 0.002 log cfu/ml reduction per minute
Extrapolated Bactericidal Efficacy Rate (at 2 ppm of Slimicide) (log cfu/ml reduction per minute) ([2]; extrapolated from 20 ppm to 2 ppm assuming first order (one-tenth)): 0.0002 log cfu/ml reduction per minute
Bactericidal Efficacy (log cfu/ml reduction in 30 minutes) ([2]; procedure of Example 5, slimicide about 20 ppm (as Cl2), white water, 30 minutes): 0.07 log cfu/ml reduction
Ratio of Bactericidal Efficacy Rate to Oxidant Loss Rate, AKD [3, 7]: 0.07 log cfu/ml reduction per ppm
Oxidant (Halogen) Loss Rate, AKD ([3]; slimicide 2.0 ppm (as Cl2), AKD 10 ppm active, tap water, 37° C., pH about 8, 30 minutes): 0.003 ppm/min
Ratio of Bactericidal Efficacy Rate to Oxidant Loss Rate, A-PAM [4, 7]: 0.007 log cfu/ml reduction per ppm
Oxidant (Halogen) Loss Rate, A-PAM ([4]; slimicide 2.0 ppm (as Cl2), A-PAM 50 ppm active, tap water, 37° C., pH about 8, 30 minutes): 0.029 ppm/min
Ratio of Bactericidal Efficacy Rate to Oxidant Loss Rate, PAE [5, 7]: 0.002 log cfu/ml reduction per ppm
Oxidant (Halogen) Loss Rate, PAE ([5]; slimicide 2.0 ppm (as Cl2), PAE 100 ppm active, tap water, 37° C., pH about 8, 30 minutes): 0.103 ppm/min
Ratio of Bactericidal Efficacy Rate to Oxidant Loss Rate, C-PAM [6, 7]: 0.008 log cfu/ml reduction per ppm
Oxidant (Halogen) Loss Rate, C-PAM ([6]; slimicide 2.0 ppm (as Cl2), C-PAM 4 ppm active, tap water, 37° C., pH about 8, 30 minutes): 0.025 ppm/min
